Measured values taken from ChEMBL document CHEMBL3044637, “Microsomal delta 8,14-sterol delta 14-reductase in higher plants. Characterization and inhibition by analogues of a presumptive carbocationic intermediate of the reduction reaction” (Eur J Biochem, 1989).

How the values were obtained:
[1] = target: T1, Cycloeucalenol cycloisomerase (Zea mays, UniProt B6TK44); experiment: Inhibition of Zea mays (maize) cycloeucalenol-obtusifolial isomerase
T1 sequence (B6TK44 whole entry): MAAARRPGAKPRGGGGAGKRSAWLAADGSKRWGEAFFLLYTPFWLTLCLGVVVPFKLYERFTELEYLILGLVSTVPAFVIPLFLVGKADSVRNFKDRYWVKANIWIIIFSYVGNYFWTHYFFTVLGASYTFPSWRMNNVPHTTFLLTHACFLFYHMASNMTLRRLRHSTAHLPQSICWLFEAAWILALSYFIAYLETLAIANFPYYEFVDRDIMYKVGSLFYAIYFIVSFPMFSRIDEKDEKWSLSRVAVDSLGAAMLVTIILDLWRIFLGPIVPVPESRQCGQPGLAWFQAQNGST

Sterol-8,7-isomerase = target: T2, Sterol-8,7-isomerase (Zea mays, UniProt Q2TU57); experiment: Inhibition of Zea mays (maize) delta8,delta7-sterol isomerase
T2 sequence (Q2TU57 whole entry): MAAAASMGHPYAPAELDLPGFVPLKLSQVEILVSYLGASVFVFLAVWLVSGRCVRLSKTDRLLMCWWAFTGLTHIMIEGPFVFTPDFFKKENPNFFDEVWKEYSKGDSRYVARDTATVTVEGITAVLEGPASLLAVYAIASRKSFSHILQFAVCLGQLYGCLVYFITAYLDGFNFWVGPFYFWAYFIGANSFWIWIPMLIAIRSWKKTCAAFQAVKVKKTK

[2] = target: T3, Delta(14)-sterol reductase (Zea mays, UniProt B4FS76); experiment: Inhibition of Zea mays (maize) microsomal delta 8,14-steroid 14-reductase using delta 8,14-cholestadienol as substrate after 90 min by GC analysis
T3 sequence (B4FS76 whole entry): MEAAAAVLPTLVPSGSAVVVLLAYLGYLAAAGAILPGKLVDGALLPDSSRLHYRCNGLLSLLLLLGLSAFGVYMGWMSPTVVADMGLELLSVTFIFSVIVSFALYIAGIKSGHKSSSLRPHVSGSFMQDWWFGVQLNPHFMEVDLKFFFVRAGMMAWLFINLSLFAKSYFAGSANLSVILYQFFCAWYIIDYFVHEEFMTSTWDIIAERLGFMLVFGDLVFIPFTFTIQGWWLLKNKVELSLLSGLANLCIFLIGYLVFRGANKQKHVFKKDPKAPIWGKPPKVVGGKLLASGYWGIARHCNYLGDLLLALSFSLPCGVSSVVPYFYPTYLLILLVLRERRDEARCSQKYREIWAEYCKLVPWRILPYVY

[3] = target: T4, Cycloeucalenol cycloisomerase (Zea mays) (UniProt B6TK44); experiment: Inhibition of Zea mays (maize) cycloeucalenol-obtusifolial isomerase at 200 uM
T4 sequence (whole entry): T1 sequence (B6TK44 whole entry)

[4] = target: T5, Delta(14)-sterol reductase (Zea mays) (UniProt B4FS76); experiment: Ratio of compound I50 to delta8,14-cholestadien-3beta-ol Km for Zea mays (maize) delta 8,14-steroid 14-reductase
T5 sequence (whole entry): T3 sequence (B4FS76 whole entry)

[5] = target: T5, Delta(14)-sterol reductase (Zea mays); experiment: Inhibition of Zea mays (maize) microsomal delta 8,14-steroid 14-reductase using delta 8,14-cholestadienol as substrate at 200 uM after 90 min by GC analysis
[6] = target: T6, Sterol-8,7-isomerase (Zea mays) (UniProt Q2TU57); experiment: Inhibition of Zea mays (maize) delta8,delta7-sterol isomerase at 200 uM
T6 sequence (whole entry): T2 sequence (Q2TU57 whole entry)

SMILES | IC50 [1] [nM] | IC50 (Sterol-8,7-isomerase) [nM] | IC50 [2] [nM] | inhibition [3] [%] | Ratio [4] | inhibition [5] [%] | inhibition [6] [%]
C[C@@H]1[C@@H](O)CC[C@]2(C)CNCC[C@@H]12 | 17500 | 10000 | 4500 | – | – | – | –
CC(Cc1ccc(C(C)(C)C)cc1)CN1CCCCC1 (stereo not drawn) [FENPROPIDIN] | 200 | 80 | 3000 | – | – | – | –
CCCCCCCCCCCCN1CC[C@H]2[C@H](C)[C@@H](O)CC[C@]2(C)C1 | 100 | – | 90 | – | – | – | –
C=C(CC[C@@H](C)[C@H]1CCN=C2C3=C(CC[C@@]21C)[C@@]1(C)CC[C@H](O)C[C@@H]1CC3)C(C)C | – | 800 | 30 | < 5 | 0.00015 | – | –
CC(Cc1ccc(C(C)(C)C)cc1)CN1C[C@@H](C)O[C@@H](C)C1 (stereo partly drawn) [FENPROPIMORPH] | 400 | 400 | 800 | – | – | – | –
CC(Cc1ccc(C(C)(C)C)cc1)CN1CC[C@H]2[C@H](C)[C@@H](O)CC[C@]2(C)C1 (stereo partly drawn) | 100 | – | 70 | – | 6.5e-05 | – | –
C[C@@H]1[C@@H](O)CC[C@]2(C)CN(Cc3ccccc3)CC[C@@H]12 | 100 | 130 | 80 | – | – | – | –
Clc1ccccc1CNC[C@H]1CC[C@H](CNCc2ccccc2Cl)CC1 | – | 500 | 40000 | < 5 | – | – | –
CC(C)CCCC(C)CCCC(C)N1CC[C@H]2[C@H](C)[C@@H](O)CC[C@]2(C)C1 (stereo partly drawn) | 25 | 200 | 300 | – | – | – | –
C[C@@H]1[C@@H](O)CC[C@]2(C)CCCC[C@@H]12 | – | – | – | < 5 | – | < 5 | < 5
CCCCCCCCCCCCCN1CC(C)OC(C)C1 (stereo not drawn) [TRIDEMORPH] | 400 | 400 | 25000 | – | – | – | –
